Laboratory results taken from patent US20190284635A1, “METHOD FOR THE PROGNOSIS AND/OR TREATMENT OF ACUTE PROMYELOCYTIC LEUKEMIA” (EPI-C S.R.L., priority 2016, published 2019).

Assays:
NB4 cells [1] = assay: Cell death induction in NB4 cells; type: cell-based, human; conditions: for cytotoxicity at 3 µM: Homo sapiens, NB-4, 30 h; for % Cell death NB4 cells: 3 μM, 30 h
Experimental: (§1) For cell cycle analyses, the cells were plated (2×10^5 cells/mL) and after stimulation (performed as indicated in the text) were harvested, centrifuged at 1200 rpm for 5 minutes and resuspended in 500 μL of a hypotonic solution containing 1×PBS, Sodium Citrate 0.1%, 0.1% NP-40, RNAase A and […] Propidium Iodide (PI) (a dye that intercalates between the DNA bases, marking the DNA content in the cells and emitting a fluorescent signal that enables the analysis). After 30′ at room temperature (RT) in the dark, samples were acquired by FACS-Calibur (BD Bioscences, San Jose, Calif., USA) using CellQuest software (BD Biosciences). The percentage in different phases of the cell cycle was determined by ModFit LT V3 software (Verity). All experiments were performed in triplicate.
When tested in leukemia NB4 cells at 3 μM for 30 h, MC2884 induced 52.1% cell death. Some MC2884 analogues have been tested to obtain SAR data (Table 8).

SHSY5Y cells = assay: Cell death induction in SHSY5Y cells; type: cell-based; conditions: 48 h; for cytotoxicity at 3 µM: Homo sapiens, SH-SY5Y; for cell death induction in SHSY5Y cells, in words, relative to MC2884: 3 μM
Experimental: as §1
When tested in neuroblastoma SHSY5Y cells at 3 μM for 48 h, MC2884 and its analogues furnished similar trend of death induction as in NB4 cells (Table 7). In general, the SHSY5Y cell line is less sensitive to the tested molecules than NB4 cells.

GCN5 = GCN5 (Homo sapiens, UniProt Q92830); assay: HAT in vitro assay, GCN5; type: biochemical; conditions: substrate Histone H3; 3 μM Acetyl-CoA; 10-dose IC50 mode; read-out: IC50 GCN5 acetyltransferase
Experimental: (§2) MC2884 activity was also tested in vitro and IC50 was calculated as indicated in the scheme. […] Reactions were carried out at 3 μM Acetyl-CoA. Empty cells indicate no inhibition or compound activity that could not be fit to an IC50 curve.

pCAF = pCAF (Homo sapiens, UniProt Q92831); assay: HAT in vitro assay, pCAF; type: biochemical; conditions: substrate Histone H3; 3 μM Acetyl-CoA; 10-dose IC50 mode; read-out: IC50 pCAF acetyltransferase
Experimental: as §2

[2] = test system: immortalized non-cancer cell systems; assay: Cytotoxicity on immortalized non-cancer cells; conditions: at the dose effective on cancer cells
Experimental: Colorimetric exclusion: cells (2×10^5 cells/mL) were plated in multiwells and in triplicate.

[3] = Mouse terminal IP PK study; type: in vivo, male CD1 mice; conditions: plasma, 2 mg/kg
Experimental: (§3) Compound was administered both intravenously and intraperitoneally to mice. Blood samples were collected at 8 time points over 24 hr and plasma analysed by LC-MS/MS to determine the concentration of compound.
(§4) The plasma time concentration profile was calculated with the main PK parameters (Co, AUClast, t, VD, and CL).
For ip dosing. After formulation assessment, MC2884 was dissolved at 0.2 mg/mL. This provided a dose of 2 mg free base material/kg when administered ip in a 10 mL/kg dosing volume.
(§5) Compound MC2884 was given ip at a dose of 2 mg/kg to a group of 24 normally fed male CD1 mice in a 10 mL/kg injection volume. Terminal blood samples (>230 μL) were taken under CO2 from groups of 3 mice at each of 8 time-points post dose (0.083, 0.25, 0.5, 1, 2, 4, 8 and 24 h) and placed into heparinized tubes. Samples were placed on ice for no longer than 30 min before centrifugation (10,000 rpm×3 min). Plasma samples (>100 μL) were collected into fresh tubes and frozen on dry ice. All samples were stored at −20° C. Number of plasma samples=24. FIG. 17-18 display results for IV-IP administration of MC2884 in normal mice

[4] = Stability of MC2884 in cell culture medium (DMEM, RP-HPLC); type: physicochemical; conditions: 50 μM in DMEM
Experimental: The compound was dissolved in DMEM at 50 μM and its concentration was measured by RP-HPLC using a ONYX 50×2 mm ID C18 column operating at 600 μL/min. The gradient applied was from 1% solvent B to 70% solvent B in 10 minutes. Solvent A was water with added 0.1% trifluoroacetic acid (TFA) and solvent B was acetonitrile with added 0.1% TFA. The eluate was monitored using a diode array detector with wavelengths set between 200-320 nm. The compound was eluted at 11.1 min. Peak integration was carried out on the chromatogram extracted at […], which is one of the compound absorbance maxima. A calibration curve was built by injecting solutions of the compound in DMSO at concentrations ranging between 1.5 μM and 200 μM. After incubation in DMEM compound concentration was determined at time points ranging between 0 and 72 hrs. As shown, half of compound was degraded after 10h. At 72 hrs it was fully degraded under these conditions.

CYP3A4 = biological target: T1, CYP3A4 (Homo sapiens, UniProt P08684); assay: Cytochrome P450 inhibition, CYP3A4, human liver microsomes; type: in vitro ADME; conditions: at 25 μM, probe midazolam
T1 construct: from tissue; host or cells: human liver microsomes

[5] = Mouse terminal IV PK study; type: in vivo; conditions: 2 mg/kg, male CD1 mice, plasma
Experimental: as §3, §4
For iv dosing. Compound was dissolved at 0.4 mg/mL. This provided a dose of 2 mg free base material/kg when administered iv in a 5 mL/kg dosing volume.
as §5, with “given iv via the lateral tail vein” for “given ip”, “a 5” for “a 10”, “ice.” for “ice. All samples were stored at −20° C.”, “samples=24. Consistent IV profiles were obtained, with little variability across the time-points (the average profile is shown in the second spreadsheet). […]” for “samples=24.”, “normal mice.” for “normal mice”

CBP = CBP (Homo sapiens, UniProt Q92793); assay: HAT in vitro assay, CBP; type: biochemical; conditions: substrate Histone H3; 3 μM Acetyl-CoA; 10-dose IC50 mode; read-out: IC50 CBP acetyltransferase
Experimental: as §2

KAT5 = KAT5 (Homo sapiens, UniProt Q92993); assay: HAT in vitro assay, KAT5; type: biochemical; conditions: substrate Histone H2A; 3 μM Acetyl-CoA; 10-dose IC50 mode; read-out: IC50 KAT5 acetyltransferase
Experimental: as §2

NB4 cells [6] = assay: Combination of ABT-737 with MC2884, pre-G1 cells; type: cell-based, human; conditions: ABT-737 with addition of MC2884 at concentrations that alone induced little apoptosis
Experimental: For cell cycle analyses, the cells were plated (2×10^5 cells/mL) and after stimulation (performed as indicated in the text) were harvested, centrifuged at 1200 rpm for 5 minutes and resuspended in 500 μL of a hypotonic solution containing 1×PBS, Sodium Citrate 0.1%, 0.1% NP-40, RNAase A and 50 mg/mL Propidium Iodide (PI) (a dye that intercalates between the DNA bases, marking the DNA content in the cells and emitting a fluorescent signal that enables the analysis). After 30' at room temperature (RT) in the dark, samples were acquired by FACS-Calibur (BD Bioscences, San Jose, Calif., USA) using CellQuest software (BD Biosciences). The percentage in different phases of the cell cycle was determined by ModFit LT V3 software (Verity). All experiments were performed in triplicate.

[7] = test system: acetyl-H3K9-14, H3K27me3/2, EZH2 in NB4 cells; assay: Western blot of histone marks and EZH2 in NB4 cells; type: cell-based, human
Experimental: The procedures were performed as described in (31,34). Primary antibodies used were: H3K27me3 (Abcam); H3K9-14ac (Millipore); H3K27ac, EZH2, PARP, TRAIL, RIP (Abcam); BID, BAX, BCL2 (Cell Signaling); BCL-XL (BD Biosciences); ERKs (Santa Cruz) and α-tubulin (Sigma) were used to normalize the total protein extracts, while H1 (Abcam) to normalize histone extracts.

[8] = test system: APL-Rs (pt#7 and 8) blasts; assay: Cell death in ex vivo APL-R blasts; type: cell-based, human; conditions: pt#7 and 8, 24 h
Experimental: Blasts cells were purified by the Ficoll-Hypaque gradient separation method (GE Healthcare). RNA was obtained by using TRIzol (Life Technologies) according to the manufacturer's recommendations. Isolation of genomic DNA has complied the FlexiGene DNA protocol (Qiagen).
To further strengthen our findings in primary human cells, apoptosis was evaluated in 6 AML patient blasts (FIG. 10C).

Chain of CBP (Q92793 whole entry): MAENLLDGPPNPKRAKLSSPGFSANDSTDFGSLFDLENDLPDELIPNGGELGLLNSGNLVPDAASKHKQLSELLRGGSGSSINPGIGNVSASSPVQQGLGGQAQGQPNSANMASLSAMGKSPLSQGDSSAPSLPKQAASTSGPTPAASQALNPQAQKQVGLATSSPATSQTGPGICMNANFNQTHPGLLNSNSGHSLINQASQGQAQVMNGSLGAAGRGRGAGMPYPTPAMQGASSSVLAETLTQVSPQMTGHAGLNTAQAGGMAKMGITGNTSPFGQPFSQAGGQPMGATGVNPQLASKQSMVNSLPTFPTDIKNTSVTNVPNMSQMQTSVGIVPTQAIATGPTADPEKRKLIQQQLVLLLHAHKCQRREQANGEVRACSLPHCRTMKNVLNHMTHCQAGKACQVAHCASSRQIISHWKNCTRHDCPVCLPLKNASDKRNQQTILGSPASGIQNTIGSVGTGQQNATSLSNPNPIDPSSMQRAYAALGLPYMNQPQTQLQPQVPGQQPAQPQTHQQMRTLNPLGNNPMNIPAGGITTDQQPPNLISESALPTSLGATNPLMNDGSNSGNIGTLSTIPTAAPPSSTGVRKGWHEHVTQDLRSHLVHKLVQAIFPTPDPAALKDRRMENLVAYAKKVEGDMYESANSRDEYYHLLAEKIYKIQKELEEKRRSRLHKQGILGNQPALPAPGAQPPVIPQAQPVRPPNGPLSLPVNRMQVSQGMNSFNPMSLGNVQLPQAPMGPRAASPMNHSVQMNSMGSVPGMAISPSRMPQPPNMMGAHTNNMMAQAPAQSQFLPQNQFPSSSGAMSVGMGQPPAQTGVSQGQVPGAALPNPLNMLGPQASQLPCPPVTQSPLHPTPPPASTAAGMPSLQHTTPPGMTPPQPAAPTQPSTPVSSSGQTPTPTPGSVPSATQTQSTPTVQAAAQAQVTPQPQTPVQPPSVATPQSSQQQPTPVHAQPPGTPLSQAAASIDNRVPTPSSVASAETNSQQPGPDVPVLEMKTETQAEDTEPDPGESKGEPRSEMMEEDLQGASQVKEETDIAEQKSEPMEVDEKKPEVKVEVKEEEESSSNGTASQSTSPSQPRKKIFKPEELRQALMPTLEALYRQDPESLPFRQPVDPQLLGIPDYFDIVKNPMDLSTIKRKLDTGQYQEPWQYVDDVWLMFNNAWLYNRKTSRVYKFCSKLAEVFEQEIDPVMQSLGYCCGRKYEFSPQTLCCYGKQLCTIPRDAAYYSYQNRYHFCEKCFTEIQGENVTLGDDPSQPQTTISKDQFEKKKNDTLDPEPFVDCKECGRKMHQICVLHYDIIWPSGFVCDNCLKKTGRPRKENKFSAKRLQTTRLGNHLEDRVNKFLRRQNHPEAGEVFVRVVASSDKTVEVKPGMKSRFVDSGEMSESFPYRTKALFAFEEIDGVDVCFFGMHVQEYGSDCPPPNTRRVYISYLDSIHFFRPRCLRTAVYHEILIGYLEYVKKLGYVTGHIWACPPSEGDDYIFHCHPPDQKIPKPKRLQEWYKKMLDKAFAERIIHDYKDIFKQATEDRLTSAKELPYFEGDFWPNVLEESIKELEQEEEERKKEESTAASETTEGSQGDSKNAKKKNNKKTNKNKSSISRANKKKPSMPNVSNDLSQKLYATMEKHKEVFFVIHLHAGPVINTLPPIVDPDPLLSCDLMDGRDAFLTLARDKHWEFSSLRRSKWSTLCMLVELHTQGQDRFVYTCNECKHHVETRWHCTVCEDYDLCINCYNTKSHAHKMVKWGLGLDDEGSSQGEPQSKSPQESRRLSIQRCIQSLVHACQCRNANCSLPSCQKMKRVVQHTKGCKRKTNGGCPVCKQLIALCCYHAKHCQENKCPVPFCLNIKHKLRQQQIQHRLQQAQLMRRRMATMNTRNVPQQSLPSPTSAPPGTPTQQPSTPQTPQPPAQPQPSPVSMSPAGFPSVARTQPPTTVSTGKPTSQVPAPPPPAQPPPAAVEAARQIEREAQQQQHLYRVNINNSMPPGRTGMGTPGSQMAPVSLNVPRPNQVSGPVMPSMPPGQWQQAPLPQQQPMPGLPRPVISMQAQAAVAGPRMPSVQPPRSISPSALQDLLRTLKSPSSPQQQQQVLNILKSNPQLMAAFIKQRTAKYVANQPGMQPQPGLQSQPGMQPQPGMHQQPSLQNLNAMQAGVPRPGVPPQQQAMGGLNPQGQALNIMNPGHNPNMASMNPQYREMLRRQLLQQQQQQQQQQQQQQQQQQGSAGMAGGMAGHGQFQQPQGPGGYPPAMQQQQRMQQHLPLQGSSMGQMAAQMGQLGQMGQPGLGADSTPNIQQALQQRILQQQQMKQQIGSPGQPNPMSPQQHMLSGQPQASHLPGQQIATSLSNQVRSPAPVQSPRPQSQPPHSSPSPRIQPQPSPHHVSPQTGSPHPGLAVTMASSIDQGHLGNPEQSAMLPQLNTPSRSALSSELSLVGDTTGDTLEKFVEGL
Chain of pCAF (Q92831 whole entry): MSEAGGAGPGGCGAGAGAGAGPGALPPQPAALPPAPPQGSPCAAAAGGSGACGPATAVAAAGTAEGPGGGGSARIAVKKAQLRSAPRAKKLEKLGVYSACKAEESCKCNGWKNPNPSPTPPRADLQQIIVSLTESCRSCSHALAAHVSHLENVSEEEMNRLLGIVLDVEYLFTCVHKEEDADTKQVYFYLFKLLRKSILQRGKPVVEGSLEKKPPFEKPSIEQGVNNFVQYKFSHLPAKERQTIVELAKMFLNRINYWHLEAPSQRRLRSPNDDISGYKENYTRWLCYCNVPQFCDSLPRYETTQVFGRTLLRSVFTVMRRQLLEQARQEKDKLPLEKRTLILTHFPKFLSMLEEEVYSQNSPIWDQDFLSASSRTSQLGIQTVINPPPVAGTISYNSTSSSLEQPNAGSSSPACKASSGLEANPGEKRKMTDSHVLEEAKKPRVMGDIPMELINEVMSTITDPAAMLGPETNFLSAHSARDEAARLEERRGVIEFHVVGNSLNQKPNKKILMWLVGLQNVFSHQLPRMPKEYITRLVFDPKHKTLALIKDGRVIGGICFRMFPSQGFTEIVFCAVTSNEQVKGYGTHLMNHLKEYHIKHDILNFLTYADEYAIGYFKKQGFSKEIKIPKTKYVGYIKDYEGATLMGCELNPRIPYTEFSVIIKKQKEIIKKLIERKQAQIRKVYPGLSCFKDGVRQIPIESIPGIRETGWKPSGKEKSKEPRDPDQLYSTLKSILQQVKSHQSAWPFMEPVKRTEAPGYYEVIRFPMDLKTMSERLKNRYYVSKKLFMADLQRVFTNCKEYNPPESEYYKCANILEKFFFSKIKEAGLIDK
T1 sequence (P08684 whole entry): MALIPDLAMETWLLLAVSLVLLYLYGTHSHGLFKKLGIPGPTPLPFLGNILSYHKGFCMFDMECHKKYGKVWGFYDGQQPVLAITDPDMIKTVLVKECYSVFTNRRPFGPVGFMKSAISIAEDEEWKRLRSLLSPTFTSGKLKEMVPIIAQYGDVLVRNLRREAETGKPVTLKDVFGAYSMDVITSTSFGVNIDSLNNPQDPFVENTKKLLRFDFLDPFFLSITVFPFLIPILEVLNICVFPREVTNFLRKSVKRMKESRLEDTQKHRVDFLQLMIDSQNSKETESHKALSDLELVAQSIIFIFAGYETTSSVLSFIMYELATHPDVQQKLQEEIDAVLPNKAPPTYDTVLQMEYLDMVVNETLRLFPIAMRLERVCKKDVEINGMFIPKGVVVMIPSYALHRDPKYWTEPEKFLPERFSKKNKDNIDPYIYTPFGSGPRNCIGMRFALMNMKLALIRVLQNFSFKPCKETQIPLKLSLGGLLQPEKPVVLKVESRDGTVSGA
Chain of KAT5 (Q92993 whole entry): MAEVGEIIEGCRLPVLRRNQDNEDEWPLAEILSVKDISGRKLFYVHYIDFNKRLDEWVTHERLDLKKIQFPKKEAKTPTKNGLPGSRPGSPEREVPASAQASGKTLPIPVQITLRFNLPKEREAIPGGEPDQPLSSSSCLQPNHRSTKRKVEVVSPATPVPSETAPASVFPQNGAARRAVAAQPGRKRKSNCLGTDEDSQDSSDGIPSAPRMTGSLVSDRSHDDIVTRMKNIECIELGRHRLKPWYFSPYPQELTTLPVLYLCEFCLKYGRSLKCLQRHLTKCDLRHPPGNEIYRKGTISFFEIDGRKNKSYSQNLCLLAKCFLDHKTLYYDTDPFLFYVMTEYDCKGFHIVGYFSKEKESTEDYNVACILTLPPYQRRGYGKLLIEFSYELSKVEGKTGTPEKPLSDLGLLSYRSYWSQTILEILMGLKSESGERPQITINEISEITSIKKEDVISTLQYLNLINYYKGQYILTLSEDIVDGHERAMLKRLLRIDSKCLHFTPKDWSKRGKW
Chain of GCN5 (Q92830 whole entry): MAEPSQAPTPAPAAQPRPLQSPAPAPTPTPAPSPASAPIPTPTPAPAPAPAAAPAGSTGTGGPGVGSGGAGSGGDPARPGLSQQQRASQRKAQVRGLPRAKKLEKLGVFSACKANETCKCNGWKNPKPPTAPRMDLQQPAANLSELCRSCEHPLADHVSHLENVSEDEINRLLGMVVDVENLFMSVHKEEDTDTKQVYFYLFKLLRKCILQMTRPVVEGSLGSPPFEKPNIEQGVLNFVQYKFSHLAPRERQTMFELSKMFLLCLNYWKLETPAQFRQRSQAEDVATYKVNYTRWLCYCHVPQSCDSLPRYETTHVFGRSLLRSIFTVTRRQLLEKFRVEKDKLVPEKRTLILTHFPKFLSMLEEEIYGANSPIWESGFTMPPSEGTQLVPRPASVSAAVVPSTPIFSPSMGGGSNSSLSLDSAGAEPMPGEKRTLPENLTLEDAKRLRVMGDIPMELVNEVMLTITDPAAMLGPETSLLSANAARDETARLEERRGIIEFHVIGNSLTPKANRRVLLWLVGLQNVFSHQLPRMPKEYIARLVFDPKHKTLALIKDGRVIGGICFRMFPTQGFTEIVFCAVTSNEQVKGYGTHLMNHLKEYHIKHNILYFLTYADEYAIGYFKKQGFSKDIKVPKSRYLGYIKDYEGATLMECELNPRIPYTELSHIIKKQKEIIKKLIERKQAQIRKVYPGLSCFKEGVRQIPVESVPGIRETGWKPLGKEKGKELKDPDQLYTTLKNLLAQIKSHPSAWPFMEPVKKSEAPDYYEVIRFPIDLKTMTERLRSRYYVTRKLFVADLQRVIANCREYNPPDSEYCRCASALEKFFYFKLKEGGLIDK

| SMILES | cytotoxicity at 3 µM (NB4 cells [1]) | cytotoxicity at 3 µM (SHSY5Y cells) | other results |
| --- | --- | --- | --- |
| O=C1/C(=C/c2cccc(Br)c2)COC/C1=C\c1cccc(Br)c1 [MC2912, 3,5-bis(3-bromobenzylidene)dihydro-2H-pyran-4(3H)-one] | 4.1% | 1% | – |
| O=C(/C=C/c1ccc(Br)cc1)/C=C/c1ccc(Br)cc1 [MC2886, (1E,4E)-1,5-bis(4-bromophenyl)penta-1,4-dien-3-one] | 0.56% | 1.2% | – |
| O=C1/C(=C/c2cccc(Br)c2)CN(CCc2ccccc2)C/C1=C\c1cccc(Br)c1 [MC3269, 3,5-bis(3-bromobenzylidene)-1-phenethylpiperidin-4-one] | 62.5% | 19.2% | cell death induction in SHSY5Y cells, in words, relative to MC2884 (SHSY5Y cells): same potency as MC2884 |
| O=C1/C(=C/c2cccc(Br)c2)CN(C(=O)c2ccccc2)C/C1=C\c1cccc(Br)c1 [MC3146, 1-benzoyl-3,5-bis(3-bromobenzylidene)piperidin-4-one] | 13.2% | 5.6% | – |
| CCCCCCCCCCCCCCCc1cccc(O)c1C(=O)O [Anacardic Acid] | – | – | IC50 (GCN5): 38.6 µM; IC50 (pCAF): 38.8 µM |
| O=C1/C(=C/c2cc(Br)cc(Br)c2)CN(Cc2ccccc2)C/C1=C\c1cc(Br)cc(Br)c1 [MC2910, 1-benzyl-3,5-bis(3,5-dibromobenzylidene)piperidin-4-one] | 4.2% | 2.4% | – |
| O=C1/C(=C/c2ccccc2Br)CN(Cc2ccccc2)C/C1=C\c1ccccc1Br [MC2908, 1-benzyl-3,5-bis(2-bromobenzylidene)piperidin-4-one] | 30.3% | 9.2% | – |
| O=C1/C(=C/c2cccc(Br)c2)CN(Cc2ccccc2)C/C1=C\c1cccc(Br)c1 [MC2884, 1-benzyl-3,5-bis(3-bromobenzylidene)piperidin-4-one] | 52.1% | – | cytotoxicity on non-cancer cells [2]: low cytotoxicity; bioavailability ([3]; male, CD1, mouse, dose route IP, time frame 0-inf): 140%; AUC ([3]; mouse, ip, male CD1 mice): 18.4 µg·h/mL; time for total degradation in culture medium [4]: 72 h; CYP3A4 % inhibition (CYP3A4): 45%; average half-life [5]: 4.58 h; AUC ([5]; mouse): 13.3 µg·h/mL |
| CC1=NN(c2ccc(C(=O)O)cc2)C(=O)/C1=C\c1ccc(-c2cc(C)c(C)cc2[N+](=O)[O-])o1 [C646] | – | – | IC50 (CBP): 0.0787 µM; IC50 (KAT5): 20.4 µM |
| O=C1/C(=C/c2cccc(Br)c2)CN(CC(=O)c2ccccc2)C/C1=C\c1cccc(Br)c1 [MC3207, 3,5-bis(3-bromobenzylidene)-1-(2-oxo-2-phenylethyl)piperidin-4-one] | 38% | 7% | % Cell death NB4 cells (NB4 cells [1]): 38.0% |
| O=C1/C(=C/c2cccc(Br)c2)CSC/C1=C\c1cccc(Br)c1 [MC2913, 3,5-bis(3-bromobenzylidene)dihydro-2H-thiopyran-4(3H)-one] | 52.7% | 23.9% | – |
| CN1C/C(=C\c2cccc(Br)c2)C(=O)/C(=C/c2cccc(Br)c2)C1 [MC2914, 3,5-bis(3-bromobenzylidene)-1-methylpiperidin-4-one] | 36% | 9% | % Cell death NB4 cells (NB4 cells [1]): 36.0%; cell death induction in SHSY5Y cells, in words, relative to MC2884 (SHSY5Y cells): reduced the potency |
| CN(C)CC[C@H](CSc1ccccc1)Nc1ccc(S(=O)(=O)NC(=O)c2ccc(N3CCN(Cc4ccccc4-c4ccc(Cl)cc4)CC3)cc2)cc1[N+](=O)[O-] [ABT-737] | – | – | cell death with ABT-737 plus MC2884 (NB4 cells [6]): up to 60% |
| O=C1/C(=C/c2ccc(Br)cc2)CN(Cc2ccccc2)C/C1=C\c1ccc(Br)cc1 [MC2909, 1-benzyl-3,5-bis(4-bromobenzylidene)piperidin-4-one] | 8.8% | 4.7% | cell death induction in SHSY5Y cells, in words, relative to MC2884 (SHSY5Y cells): less potent or not active; modulation of histone acetylation and EZH2 deregulation [7]: unable to modulate |
| O=C1/C(=C/c2ccc(O)cc2Br)CN(Cc2ccccc2)C/C1=C\c1ccc(O)cc1Br [MC3395, 1-benzyl-3,5-bis((E)-2-bromo-4-hydroxybenzylidene)piperidin-4-one] | 0.53% | 1% | – |
| O=C1/C(=C/c2cccc(Br)c2)CN(CCCc2ccccc2)C/C1=C\c1cccc(Br)c1 [MC3272, 3,5-bis(3-bromobenzyliden)-1-(3-phenylpropyl) piperidin-4-one] | 29.2% | 7% | – |
| O=C1/C(=C/c2cccc(Br)c2)CCC/C1=C\c1cccc(Br)c1 [MC2911, 2,6-bis((E)-3-bromobenzylidene)cyclohexan-1-one] | 0.76% | 0.8% | – |
| CC1=C(/C=C/C(C)=C/C=C/C(C)=C/C(=O)O)C(C)(C)CCC1 [ATRA, All Trans Retinoic Acid] | – | – | apoptosis in ex vivo APL-R blasts [8]: did not undergo efficient apoptosis |
| O=C1/C(=C/c2cccc(Br)c2)CN(C(=O)CCc2ccccc2)C/C1=C\c1cccc(Br)c1 [MC3187, 3,5-bis(3-bromobenzylidene)-1-(3-phenylpropanoyl) piperidin-4-one] | 28.9% | 19.9% | cell death induction in SHSY5Y cells, in words, relative to MC2884 (SHSY5Y cells): slightly more potent than MC2884 |
